{"source": "patent US8022235B2", "about": "“Compositions of phospholipid ether boronic acids and esters and methods for their synthesis and use” (Cellectar, Inc., priority 2007, dated 2011)", "key": {"[1]": {"conditions": "excess boron ingestion; cited from earlier work"}, "[2]": {"test_system": "non-small cell lung cancer (NSCLC)", "experiment": "Initial human pharmacokinetic evaluation, planar gamma-camera scintigraphy", "format": "in vivo", "conditions": "<1 mCi injection, preliminary, n=3", "excerpt": "FIG. 6A-C images of lung cancer patient, posterior whole body planar nuclear medicine image (A) 4 days after iv administration of ^131I-NM404 (0.8 mCi) to a patient with non small cell lung cancer (6 cm dia., arrow). Lung tumor is easily detected in corresponding axial (B) and coronal (C) computed tomography (CT) scans;\nIn preparation for human clinical trials, unlabeled NM404 was subjected to independent (University of Buffalo Toxicology Research Center) acute toxicity evaluation at 1200 times the anticipated imaging mass dose in rats and rabbits. […] Due to its selective tumor uptake and retention properties in a variety of rodent tumor models and subsequent excellent safety profile in rats and rabbits, NM404 was selected to undergo initial human pharmacokinetic evaluation in non-small cell lung cancer (NSCLC) patients. Patients underwent planar gamma-camera scintigraphy after receiving an injection of ^131I-NM404 (<1 mCi)."}, "[3]": {"test_system": "human lung cancer", "experiment": "Clinical evaluation of NM324, scintigraphy", "format": "in vivo", "conditions": "for tumor uptake / detection: scintigraphy in lung cancer patients", "excerpt": "FIG. 10 is a scintigraphic image of the anterior chest of Patient 03 acquired at 1, 2, and 6 days after iv administration of 1 mCi ^131I-NM324.\nBased upon this work, NM404 [18-(4-iodophenyl)-octadecyl phosphocholine] emerged due to its enhanced ability to localize in tumor, its increased metabolic clearance from the liver, and its longer plasma half-life."}, "[4]": {"test_system": "animal tumor models", "conditions": "radioiodinated analogs, xenograft and spontaneous tumor rodent models, previous reports; cited from earlier work"}, "[5]": {"test_system": "human PC-3 prostate tumor xenografts", "experiment": "Scintigraphy, microPET and tissue distribution in PC-3 tumor model", "format": "in vivo, SCID mice", "conditions": "advanced metastatic PC-3, 48 h post iv injection"}, "[6]": {"test_system": "rat mammary tumor", "experiment": "Biodistribution of 125I-NM324 in rat mammary tumor model", "format": "in vivo"}, "[7]": {"target": "T1, PLC isolated from Bacillus cereus (Bacillus cereus, UniProt P09598)", "T1 construct": "PLC isolated from Bacillus cereus; endogenous in cells; host or cells: Bacillus cereus", "T1 sequence (P09598 39-283 limits assumed)": "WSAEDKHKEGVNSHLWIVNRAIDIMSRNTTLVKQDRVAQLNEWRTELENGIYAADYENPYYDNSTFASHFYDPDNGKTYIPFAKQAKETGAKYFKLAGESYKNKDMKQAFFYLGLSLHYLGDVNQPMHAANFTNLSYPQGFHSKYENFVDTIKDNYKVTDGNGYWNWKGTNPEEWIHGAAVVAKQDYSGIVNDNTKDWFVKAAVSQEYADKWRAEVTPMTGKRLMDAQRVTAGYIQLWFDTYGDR", "experiment": "PLC substrate assay", "format": "biochemical", "method": "(§1) Formal metabolism studies were conducted on several PLE analogs including NM324, the predecessor of NM404. In these studies, each agent was examined to determine its ability to serve as substrates for enzymes associated with PLE metabolism. Three major enzymatic pathways are involved in the metabolism of PLE. O-Alkyl glycerol monooxygenase (AGMO) is responsible for cleavage of the alkyl ether linkage at C-1 to form either the long chain fatty alcohol or subsequently, the corresponding fatty acid. Phospholipases C (PLC) and D (PLD), on the other hand, give rise to the glycerol or phosphatidic acid products, respectively."}, "[8]": {"test_system": "carrageenan-induced granulomas", "experiment": "Uptake into inflammatory lesions", "parameters": "species or system rats", "conditions": "rat, in vivo", "excerpt": "The utility of tumor tracers like ^67Ga-citrate and ^18F-FDG is limited by their lack of specificity to distinguish neoplasm from inflammation. Further, accumulation of FDG in the urine interferes with visualization of pelvic and abdominal abnormalities. This lack of specificity is a significant clinical issue in patients with cancer. […] Some exemplary embodiments of PLE analogs discussed herein are illustrated in FIG. 1. […] Although FDG-PET has paved the way for hybrid imaging, its lack of tumor cell specificity will always limit its diagnostic efficacy. New molecularly targeted agents, like NM404, which display universal tumor uptake and selective retention regardless of location, as well as selectivity for malignant tumor cells and not inflammatory or hyperplastic lesions, represents a significant improvement in the detection, targeting and characterization of cancer."}, "[9]": {"test_system": "Prostate MatLyLu", "experiment": "Gamma camera scintigraphy screen in Dunning R3327 (MAT LyLu) prostate cancer model", "format": "in vivo, Copenhagen rats", "conditions": "radioiodinated analog 30-40 μCi, images incl. 24 and 48 hours post injection", "method": "The avidity of PLE and APC analogs to localize in tumors was evaluated in several animal models. The PC-3 model represents a human tumor cell line that was used to determine the target (tumor) to non-target ratio of NM404 and NM412 in head to head comparison in order to select a candidate for an initial human pharmacokinetic trial in prostate cancer patients. The MatLyLu (Dunning R3327 rat) model, a rat prostate tumor line, was used specifically to screen 9 specific analogs prior to entering them into control for dosimetry and tumor-bearing animals for determining tumor/background ratios. Finally, the Walker-256 carcinosarcoma model was used for quantitative tissue distribution purposes.\nIn order to expedite the screening process and minimize the number of tumor bearing animals utilized in multiple time point tissue distribution studies, new radioiodinated homologs were imaged by gamma camera scintigraphy in the rat Dunning […] (MAT LyLu strain) prostate cancer model. Thus, male Copenhagen rats received a subcutaneous injection of MAT LyLu cells (1×10^6 cells) in the thigh 10-14 days prior to injection of the radioiodinated PLE analogs (30-40 μCi) in 2% Tween-20 solution. Gamma camera images were obtained at multiple time points including 24 and 48 hours post injection. […] Tissue distribution of radioactivity in rats bearing Walker-256 carcinosarcoma was assessed at various time intervals following intravenous administration of the radioiodinated chain length homologs. The first group of compounds that was tested included three alkylphosphocholines: a shorter chain analog with seven carbons NM396 and two analogs with a longer chain length, 13 (NM397, C15 alkyl chain length) and 1 (NM404, C18 alkyl chain length).\nIn order to decrease liver uptake and prolong the plasma phase, the inventors examined 9 structural analogs of NM324 to identify agents that would display improved tumor-to-background tissue ratios with decreased liver uptake. The new PLE analogs were synthesized and radiolabeled with ^125I for initial image analysis in Copenhagen rats bearing Dunning R3327 prostate tumors. […] NM404 was therefore selected to undergo further imaging and biodistribution analysis in a variety of animal-tumor models."}, "[10]": {"test_system": "serum proteins", "conditions": "cited from earlier work"}, "[11]": {"experiment": "Blood plasma kinetics", "parameters": "species or system rats", "conditions": "rat, in vivo"}, "[12]": {"test_system": "animal tumor models", "experiment": "Imaging and biodistribution across animal tumor models (general statements)", "conditions": "mammary, prostate, squamous cell carcinoma, ovarian, colorectal, melanoma", "excerpt": "See, for example, U.S. patent application Ser. Nos. 10/906,687, 11/177,740, 11/316,620 and 11/382,645. Due to deficiencies in metabolic phospholipase enzymes in the membranes of malignant tumor cells, the prevailing hypothesis for this specificity is that phospholipid ether analogs become trapped exclusively in tumor cell membranes because of their inability to become metabolized and eliminated by the cancerous cell. Thus, the differential clearance rates of phospholipid ethers from normal cells versus neoplastic tumor cells are responsible for this specificity.\nThe reason for the retention of PLE and analogs in cancer cells remains unknown. Without being held to any particular theory, however, the prevailing hypothesis, is that radioiodinated PLE and APC analogs become trapped in tumor cell membranes because of their inability to be metabolized and eliminated. On the other hand, such lipid molecules are metabolized and cleared by normal tissues, including the liver.\nThese PLE analogs are specifically designed to incorporate aromatic radioiodine in order to render the molecule stable towards in vivo deiodination."}, "[13]": {"target": "T2, O-Alkyl glycerol monooxygenase (AGMO) (Homo sapiens, UniProt Q6ZNB7)", "T2 construct": "Using a microsomal AGMO enzyme preparation; from tissue", "T2 sequence (Q6ZNB7 whole entry, species assumed)": "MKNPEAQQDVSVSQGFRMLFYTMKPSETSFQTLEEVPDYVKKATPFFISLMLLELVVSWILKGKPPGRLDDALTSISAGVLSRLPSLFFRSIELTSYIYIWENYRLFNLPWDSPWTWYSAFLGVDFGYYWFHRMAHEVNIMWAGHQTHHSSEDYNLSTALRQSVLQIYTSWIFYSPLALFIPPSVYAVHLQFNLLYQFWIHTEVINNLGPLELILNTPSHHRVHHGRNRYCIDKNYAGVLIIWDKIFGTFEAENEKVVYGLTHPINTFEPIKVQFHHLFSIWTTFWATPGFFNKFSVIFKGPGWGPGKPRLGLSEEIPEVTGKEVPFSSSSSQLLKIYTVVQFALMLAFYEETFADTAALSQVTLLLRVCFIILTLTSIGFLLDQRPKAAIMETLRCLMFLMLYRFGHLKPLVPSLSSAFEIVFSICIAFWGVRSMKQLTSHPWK", "experiment": "Microsomal AGMO substrate assay", "format": "biochemical", "conditions": "microsomal enzyme preparation", "method": "as §1"}}, "note": "Entries after “also recorded” stand apart in the source; their conditions may differ.", "data": [{"smiles": "OB(O)O", "note": "[boric acid]", "values": [{"measurement": "excretion", "setting": "[1]", "value": "excreted rapidly in the urine"}, {"measurement": "time to disappearance", "setting": "[1]", "value": "≤ 4", "unit": "days"}]}, {"smiles": "C[N+](C)(C)CCOP(=O)([O-])OCCCCCCCCCCCCCCCCCCc1ccc([131I])cc1", "note": "[^131I-NM404]", "values": [{"measurement": "tumor uptake and retention", "setting": "[2]", "value": "tumor uptake and prolonged retention in primary lung tumors"}]}, {"smiles": "C[N+](C)(C)CCOP(=O)([O-])OCCCCCCCCCCCCc1cccc([131I])c1", "note": "[^131I-NM324]", "values": [{"measurement": "tumor uptake / detection", "setting": "[3]", "value": "Uptake is seen in the left lingular lung cancer (T) with increasing tumor-to-background ratios over time"}]}, {"smiles": "COC(COCCCCCCCCCCCCc1cccc([125I])c1)COP(=O)([O-])OCC[N+](C)(C)C", "note": "(stereo not drawn) [NM294]", "values": [{"measurement": "selective retention by tumors", "setting": "[4]", "value": "selectively retained by a variety of human and animal tumors"}]}, {"smiles": "C[N+](C)(C)CCOP(=O)([O-])OCCCCCCCCCCCCCCCCCCc1ccc([124I])cc1", "note": "[^124I-NM404]", "values": [{"measurement": "microPET uptake in primary tumor and lymph nodes", "setting": "[5]", "value": "significant uptake"}]}, {"smiles": "C[N+](C)(C)CCOP(=O)([O-])OCCCCCCCCCCCCc1cccc([125I])c1", "note": "[Compound 125I-NM324]", "values": [{"measurement": "tumor-to-blood ratio", "setting": "[6]; 96 hours", "value": 8.6}, {"measurement": "time of maximum tumor-to-normal tissue ratios", "setting": "[6]; rat, in vivo", "value": 96, "unit": "h"}]}, {"smiles": "[3H]C(CCCCCC)C([3H])CCCCCCCC(=O)O[C@H](COC(=O)CCCCCCCCCCCCCCC)COP(=O)([O-])OCC[N+](C)(C)C", "note": "(stereo partly drawn) [DPPC, 1-palmitoyl-2-[^3H]-palmitoyl-L-3-phosphatidylcholine, reference compound]", "values": [{"measurement": "hydrolysis by PLC", "setting": "[7]", "value": "underwent significant hydrolysis"}]}, {"smiles": "O=C([O-])CC(O)(CC(=O)[O-])C(=O)[O-].[Ga+3]", "note": "[Gallium citrate, reference compound]", "values": [{"measurement": "uptake and retention in granulomas", "setting": "[8]", "value": "concentrate significantly in the granulomatous lesions"}]}, {"smiles": "COC(COCCCCCCCCCCCCCCCCCCc1ccc(I)cc1)COP(=O)([O-])OCC[N+](C)(C)C", "note": "(stereo not drawn) [NM410]", "values": [{"measurement": "gamma camera imaging findings (tumor, liver, abdomen)", "setting": "[9]", "value": "high hepatic uptake, significant abdominal accumulation and retention or poor tumor uptake and retention; also recorded: high radioactivity levels in the liver and abdomen with little to no uptake of the agent into tumors"}]}, {"smiles": "CCCCCCCCCCCCCCCCCCOCC(COP(=O)([O-])OCC[N+](C)(C)C)OC", "note": "(stereo not drawn) [ET-18-OCH3]", "values": [{"measurement": "ether lipid bound to HDL", "setting": "[10]", "value": "about 6%"}, {"measurement": "ether lipid bound to albumin", "setting": "[10]", "value": 71, "unit": "%"}]}, {"smiles": "C[N+](C)(C)CCOP(=O)([O-])OCCCCCCCCCCCCc1cccc(I)c1", "note": "[NM324, 12-(m-iodophenyl)dodecyl phosphocholine]", "values": [{"measurement": "uptake and retention in granulomas", "setting": "[8]", "value": "no uptake and retention"}, {"measurement": "selective retention by tumors", "setting": "[4]", "value": "selectively retained by a variety of human and animal tumors"}, {"measurement": "hydrolysis by PLC", "setting": "[7]", "value": "not hydrolyzed"}, {"measurement": "liver uptake", "setting": "[3]; initial human pharmacokinetic studies", "value": "high liver uptake values; also recorded: unacceptable accumulation in liver tissue; also recorded: images were complicated by high liver radioactivity"}, {"measurement": "tumor uptake / detection", "setting": "[3]", "value": "detected tumors"}, {"measurement": "elimination half life time in plasma", "setting": "[11]", "value": 2.43, "unit": "h"}, {"measurement": "tumor visualization by scintigraphy", "setting": "[12]", "value": "successfully visualized"}, {"measurement": "substrate for AGMO", "setting": "[13]", "value": "not a substrate"}]}]}
